64 compounds from a melting point compilation (Tetko et al.; mined from patent text by program, amines drawn as free bases though some values may be those of a salt) can be followed below.

Structures are written as SMILES.

Turning to `C[C@@H](O)CNC(=O)N1CC(c2ccc(F)cc2)C1`, the melting point (usually the temperature of the solid-liquid transition) was in the range of 104 to 105 °C.

`CSc1cccc(-n2ncc(-c3ccc(S(C)(=O)=O)cc3)c(-c3ccc(F)cc3)c2=O)c1` gave a melting point of 196 °C.

Compound `Cc1nc(-c2ccccc2)c(CC(C)(C)C(=O)O)o1` had a melting point of 129 to 130 °C.

`Cc1cc(-n2ccnc2)c2cccc(OCc3c(Cl)ccc(S(=O)(=O)N4CCC[C@H]4C(=O)N(C)C)c3Cl)c2n1`: the melting point amounted to 88 °C.

`CN1C(=O)C(c2cccc(-c3cccnc3F)c2)(c2cnn(CCF)c2)N=C1N` (centres undefined) showed a melting point of 195 to 197 °C.

`O=NN1CCc2cc(Cl)ccc21` gave a melting point of 120 to 122 °C.

As for `CC(C)(C)C(NC(=O)c1ccc(Cl)cc1)Nc1c(Nc2cccc(F)c2)c(=O)c1=O` (centres undefined), the melting point is 271 to 272 °C.

With `COc1ccc2c(c1)sc1nc(C(=O)C3CC3)cn12`, the melting point came to 213 °C.

In turn, `N#CC(=NO)c1cccc(Br)c1` registered a melting point of 91 to 93 °C.

As for `Cn1ccnc1S(=O)(=O)c1ccc(Cl)cc1`, the melting point lay within 164 to 166 °C.

Compound `O=C1C(=CO)Cc2ccccc21` returned a melting point of 112 to 113 °C.

Turning to `CN(C(=O)c1ccc(-c2ccccc2)cc1)C1N(C)C(c2ccc(F)cc2)=NC1(C(F)(F)F)C(F)(F)F` (centres undefined), the melting point was 186 to 187 °C.

The compound `Cc1ccc(C(=O)NCCC(=O)OCc2ccccc2)c(NC(=O)CCCCNC(=O)OC(C)(C)C)c1` yielded a melting point of 112 to 113 °C.

On to `Fc1cccc2c1CN(C1=NCCO1)C2`, for which the melting point lay in the range of 125 to 129 °C.

With `CC(C)(C)C(=O)Nc1cccc(C(F)(F)F)c1`, the melting point came to 107 °C.

Compound `CNCC1(O)c2ccccc2C=Cc2ccccc21` showed a melting point of 112 to 114 °C.

Consider `O=C(c1ccccc1)C1CCN(CCN(C(=O)c2ccc([N+](=O)[O-])cc2)c2cccnc2)CC1`, for which the melting point was in the range of 134 to 136 °C.

`Cc1ccc(-c2ccc(C(=O)Nc3ccc4cc(CN5CCCC5)cnc4c3F)c(F)c2)cc1` returned a melting point of 173 °C.

In turn, `COC(=O)C(C)(C)S(=O)(=O)N1CCC(c2ccc(-n3ccc(OC)n3)c(C)c2)CC1` displayed a melting point of 109 to 110 °C.

`COc1ccc(C2=NN(Cc3cccc(C(=O)O)c3)C(=O)[C@H]3CCCC[C@@H]23)cc1OC` (relative stereo): the melting point was 133 to 136 °C.

In the case of `COC(=O)CC(C#N)(C(=O)OC)c1cccc2ccc(OC)cc12` (centres undefined), the melting point lay within 119 to 121 °C.

`CCn1c(=O)c2c(nc(/C=C/c3ccc(OC)c(O)c3)n2C)n(CC)c1=O` yielded a melting point of 204 to 206 °C.

Compound `C=Cc1ccc(C=CC#N)cc1` yielded a melting point of 45.8 °C.

`CCCCCOc1nc(N)nc2c1ncn2C1C=CC(CO)C1` (centres undefined) yielded a melting point of 139 to 141 °C.

With `C=CCOCN1C(C)=C(C(=O)OCC)C(c2cccc([N+](=O)[O-])c2)C(C(=O)OCC)=C1C`, the melting point is 111 to 112 °C.

`COCOc1cc(C(C)(C)C)ccc1C(=O)O` showed a melting point of 72 °C.

`Cc1nc2n(c(=O)c1CCN1CCC(c3c[nH]c4ccccc34)CC1)CCCS2` registered a melting point of 227 °C.

`CC(C)(C)NC(=O)NC1(C#N)CCC1` registered a melting point of 212 to 214 °C.

In the case of `COC(=O)c1cc(C)cc(Br)c1NS(=O)(=O)c1ccc(OC)cc1`, the melting point worked out at 113 °C.

In turn, `CCOC(=O)c1nc2c(=O)[nH]c3ccc(-n4ccnc4)cc3n2c1C` came in with a melting point above 250 °C.

In turn, `CCCCCCCCCCCCCCc1ccc(OCC2COC(C)(C)O2)cc1` (centres undefined) registered a melting point of 52 to 53 °C.

With `CC1NC(=O)NN=C1c1ccc(S)cc1` (centres undefined), the melting point fell in the range of 202 to 204 °C.

Turning to `Cc1ccc(S(=O)(=O)OCC2COC(C(F)(F)F)(C(F)(F)F)O2)cc1` (centres undefined), the melting point lay within 57 to 58.5 °C.

With `O=C(O)c1cc2cc(C(F)(F)F)cnc2n1Cc1ccncc1`, the melting point lay within 302 to 303 °C.

`CC(C)Cn1c(CNC(=O)OC(C)(C)C)c(-c2ccccc2)c2cc(/C=C/C(=O)O)ccc2c1=O` returned a melting point of 172 to 173 °C.

`O=C(CC1CCCCC1)Nc1ccccc1` registered a melting point of 126 to 128 °C.

`CCn1c(OC(C)C)n[nH]c1=O` came in with a melting point of 69 to 70 °C.

`COc1cc(-c2nc(NC(=O)c3c(C)c4cc(C)ccc4n3CC(=O)O)sc2CCC2CCCCC2)c(OC)cc1C`: the melting point was 150 to 152 °C.

For `CC(C)(COc1ccc(Cl)cc1)C(=O)COc1ccc(Cl)cc1`, the melting point fell in the range of 76 to 77 °C.

`CCc1cc(Cl)ccc1NC(C)=O` came in with a melting point of 117 to 122 °C.

In turn, `O=C(O)C=Cc1cc(OCc2ccccc2)cc(OCc2ccccc2)c1` gave a melting point of 154 to 156 °C.

Consider `Cc1ccc(C)c(Oc2oc(-c3ccc(Cl)cc3)nc2CC(=O)O)c1`, for which the melting point came out at 185 °C.

In turn, `COc1ccc(CCNCC(O)c2ccccc2)cc1OC` (centres undefined) showed a melting point of 92 to 93 °C.

Turning to `CCCc1c(OCc2ccccc2C(=O)NCCCCc2cccnc2)ccc(C(C)=O)c1O`, the melting point is 135 to 139 °C.

In turn, `C=C(c1ccc(Cl)cc1)c1ccc(NC(=O)c2cc(Br)cc(Br)c2O)cc1` had a melting point of 181 to 183 °C.

Turning to `CCn1c(Cl)c(C=NO)c(=O)n(CC)c1=O`, the melting point was 92 to 94 °C.

For `COc1cc(C)nc(CNC(=O)NS(=O)(=O)c2ccccc2S(=O)(=O)N(C)C)n1`, the melting point was in the range of 153 to 156 °C.

Take `O=[N+]([O-])c1ccc(Nc2ccccn2)c(C(F)(F)F)c1`: the melting point lay within 83 to 84 °C.

The compound `FC(F)(F)CNc1nc(Cl)nc(Cl)n1` registered a melting point of 115 to 118 °C.

In the case of `COc1ccc(/C=C/S(=O)(=O)CS(=O)(=O)/C=C/c2ccc(OC)c(O)c2)cc1N`, the melting point fell in the range of 148 to 150 °C.

`O=C(NC(=O)c1c(F)cccc1F)Nc1ccc(-c2ccc(Cl)cc2)cn1` displayed a melting point of 229 to 234 °C.

As to `CCn1c(C(C)NS(=O)(=O)c2ccc(Cl)c(Cl)c2)cnc1Oc1ccc(Cl)cc1` (centres undefined), the melting point lay within 153 to 157 °C.

`Cn1c(C(F)(F)F)ccc(-c2c(Cl)cc(Cl)c3oc(C(Br)(Br)Br)cc23)c1=O` returned a melting point of 225 to 227 °C.

As to `Cc1nn(C)c(C2=NC(C)CN2)c1[N+](=O)[O-]` (centres undefined), the melting point lay within 98 to 101 °C.

In turn, `CCCCn1c(C)c(Br)c(=O)c(C(=O)Nc2ccc(Br)cc2C)c1C` showed a melting point of 190 to 192 °C.

`COc1ccc(OC)c(S(=O)(=O)N2CCC(N3N=C(c4ccc(OC)c(OC)c4)CCC3=O)CC2)c1` came in with a melting point of 184 to 185 °C.

For `CCc1nc2c(N)nc3ccccc3c2o1`, the melting point fell in the range of 175 to 178 °C.

`COc1ccc(C(=O)N2CCN(C(=O)C3=Cc4cc(OC)c(OC)cc4CC3)CC2)cc1OC` had a melting point of 190 to 191 °C.

In turn, `Cc1ccc2nc(-c3cc(C(F)F)nn3-c3ccc(S(C)(=O)=O)cc3)sc2c1` displayed a melting point of 183 to 184 °C.

In turn, `CCCCCCCCCCCCc1nnn(CC(=O)O)n1` gave a melting point of 89 to 91 °C.

With `CC(C)(C)c1cc(C(=O)NC2CCCCC2)cc(C(C)(C)C)c1O`, the melting point was in the range of 236 to 237 °C.

On to `COc1cc(-c2nc3ccccc3n2Cc2ccc(Cl)c(Cl)c2)cc(OC)c1OC`, for which the melting point was determined as 145 °C.

`CC(C)(C)OC(=O)N(OCc1ccccc1)C(=O)OC(C)(C)C` had a melting point of 77.5 to 78.5 °C.

In turn, `O=S1(=O)NCN(C2CCCCCC2)c2cc(Cl)ccc21` returned a melting point of 149 to 151 °C.
